Data: patent US20200030455A1, “MULTISTEP TUMOR TARGETING BY TAGGED ANTIBODY DERIVATIVES AND TAGGED DRUGS” (ISTITUTO BIOCHIMICO ITALIANO GIOVANNI LORENZINI S.P.A, priority 2017, published 2020)

Experiments:
[1] = system: ERBB2 pathway (c-Fos promoter reporter) in BRC 230 breast carcinoma cells; experiment: c-Fos promoter reporter (luminescence, RLU) assay of ERBB2 signaling; assay type: cell-based
From the text: Mertansine was StrepTagged using a linker-spacer (depicted in A). The Strep-tag peptide WSHPQFEK (SEQ ID NO 2) was linked to the mertansine thiol group using the protocol disclosed in Bioconjugate Techniques, 3rd Edition Bioconjugate Techniques, 3rd Edition (2013) by Greg T. Hermanson. BRC 230 breast carcinoma cells, expressing moderate levels of ERBB2 were stably transfected with a promoter-reporter gene construct in which luciferase is placed under the control of the c-Fos promoter. […] Therefore, c-Fos activation is proportional to ERBB2 signaling, and luminescence is expected to decrease in response to the Toolbox treatment. BRC transfectants were seeded in 96-well plates (quadruplicates), and cultured for 24 h either in the presence or in the absence of the ERB-specific growth factor Neuregulin 1 (NRG-1) at a concentration of 5 nM, as indicated. During the last 30 min of this incubation ScFv (10 μg/ml) was added, where indicated. Meanwhile, equal molar concentrations of StrepTagged Mertansine (or RPMI 1640 medium, as a control) were pre-incubated with StrepTactMult in complete culture medium (RPMI 1640 containing 10% bovine serum) to form drug: StrepTactin complexes. […] All the cells were cultured for additional 72 h, and Relative Luminescence Units (RLU) were assessed in a luminometer.

[2] = system: SK-BR-3 breast carcinoma cells; experiment: 3H-Thymidine incorporation (cell proliferation) assay; assay type: cell-based, human; conditions: drug alone, without Toolbox cocktail; 5 and 50 μM; 72 h
Experimental: NAX 098 was modified by covalent addition of the polypeptide StrepTag ([…]), as also shown in (A). SK-BR-3 breast carcinoma cells were seeded in 96-well plates (quadruplicates), and cultured for 30 min in the presence of ScFv (10 μg/ml). Meanwhile, equal molar concentrations of NAX 098 and NAX […] (or RPMI 1640 medium, as a control) were pre-incubated with StrepTactMult in complete culture medium (RPMI 1640 containing 10% bovine serum) to form drug: StrepTactin complexes. The drug: StrepTactin complexes were added to separate cultures to yield a final StrpTactMult concentration of 0.75 μg/well (approximately 3.2 μg/ml), and two final drug concentrations of 5 and 50 μM, as indicated in (B). As a control, equal amounts of NAX 098 and NAX […] drugs were added to separate wells in the absence of the Toolbox cocktail. All the cells were cultured for 72 h, and ^3H-Thymidine incorporation was assessed over a 4 h radioactive pulse. Results were expressed as percent of radioactive Thymidine incorporation as compared to untreated (RPMI 1640 vehicle alone) control cells.

StrepTagged Mertansine: Strep-tag peptide WSHPQFEK linked to the mertansine thiol group using a linker-spacer
activity of the ERBB2 pathway (Relative Luminescence Units) ([1]; BRC 230 transfectants, with or without NRG-1 5 nM, ScFv 10 μg/ml, drug 5 nM, 72 h): inhibited the ERBB2 pathway | activity of the StrepTagged drug before system-mediated dispatch ([1]; figure legend of Drawing 4): inactivates the drug

COc1ccc2c(CCc3ccc(Cl)cc3)c3[n+](cc2c1OCCCN1C(=O)C=CC1=O)CCc1cc2c(cc1-3)OCO2 [NAX 098, 9-(3-propylmaleimide)-13-[2-(4-chlorophenyl)ethyl]berberine]
inhibition of cell proliferation (3H-Thymidine incorporation vs untreated control) [2]: strongly inhibited cell proliferation
